Experimental findings from paper PMC6272327, “Discovery of Metal Ions Chelator Quercetin Derivatives with Potent Anti-HCV Activities” (Molecules, 2015) are described below.

Data set [1] deals with HCV infectious virus J399EM. In words: Anti-HCV assay in authentic HCV infection/replication system (J399EM EGFP reporter virus) in Huh7.5.1 cells. The data set is classed as cell-based, hepatitis C virus (JFH1-derived, genotype 2a). Particulars: for EC50: Hepatitis C virus, Huh-7.5.1, 72 h; for SI (selectivity index): ratio of CC50 to EC50, Huh7.5.1 cells. The procedure: (§1) The inhibition of HCV by all synthesized quercetin derivatives was evaluated following a previously reported procedure. All newly synthesized compounds were tested in authentic HCV infection/replication system in the human hepatoma cell lines Huh7.5.1 using mycophenolic acid (MPA) as control compound. The cytotoxicity effect of the test compounds was also evaluated in the same cell line by MTT method. Antiviral effect and cytotoxicity effect were summarized as EC50 and CC50 respectively, as well as the selective index (SI) which is the ratio of CC50 to EC50. The stability of quercetin-3-O-ester compounds were also tested in the same buffer as the antiviral activity assay at 37 °C and the hydrolysate was measured by HPLC.
The biological assays were performed following a previously reported procedure. The Huh7.5.1 cell line and the HCV infectious virus J399EM were kindly provided by Xin-Wen Chen, Wuhan Institute of Virology, Chinese Academy of Sciences. Huh7.5.1 cells were cultured in Dulbecco’s modified Eagle’s medium (DMEM) containing 10% (v/v) fetal bovine serum, 0.5 mg/mL G418, 100 IU/mL penicillin, and […].
J399EM is an infectious HCV virus derived from the JFH1 virus (genotype 2a) by insertion of enhanced green fluorescent protein (EGFP) into the HCV NS5A region. The establishment of the infectious J399EM HCV virus has been described previously. J399EM was propagated in Huh7.5.1 cells. Briefly, Huh7.5.1 cells were infected with J399EM at MOI = 0.1 and cultured for 4 days. Culture supernatant was collected and filtered through a 0.45 μm membrane and stored at −80 °C as virus stock. Virus titer was tested in Huh7.5.1 cells. Stocks were serially diluted, and the foci forming units (FFU) were determined as the number of fluorescent colonies formed in infected Huh7.5.1.
All the compounds were first dissolved in DMSO at 50 mM, and then diluted to various concentrations (50 μM, 25 μM, 12.5 μM, 6.3 μM and 3.1 μM). Approximately 1 × 10^4 Huh7.5.1 cells per well were plated in an opaque 96-well tissue culture plate (Costar 3904). The next day, the medium was replaced by J399EM virus at an MOI of 0.3. Four hours later, the virus inoculum was removed and medium containing different concentrations of compounds was added. After an additional 72 h of incubation, the culture medium was removed and the EGFP autofluorescence was measured by using a […] with excitation at 488 nm and emission at 516 nm. Compounds and controls were performed in duplicate and each experiment repeated independently at least twice.

Data set [2] in a line: Cell viability / cytotoxicity by MTT method. Particulars: human. It is filed as cell-based. How it is done:
as §1
After the EGFP signal was read, cell viability was measured in the same plate by the MTT [3-(4,5-dimethylthiazol-2-yl)-2,5-diphenyltetrazolium bromide; Sigma-Aldrich, St. Louis, MO, USA] method. Briefly, MTT (1 mg/mL) was dissolved in PBS. Cell culture supernatants were removed and replaced with MTT and further cultured for 4 h; cells were then lysed with 10% sodium dodecyl sulfate (SDS), 50% N,N-dimethylformamide, pH 7.2. OD570 values were read. The percentage of cell death was calculated against the control well without compounds.
Background: Tetrazolium dyes change colour on reduction, which living cells bring about.

Setting [3] is: Huh7.5.1 cells, MTT, concentration required to reduce cell proliferation by 50%, average of duplicate determinations, read-out: CC50.

Structures are written as SMILES. Read-outs that look alike come from different tables or passages of the source.

For orientation: EC50 means the concentration at which the effect is half-maximal. The low end stands for an effect from little substance, the high end for a need for much substance. In general, CC50 refers to the concentration at which the toxic effect on the cells reaches its halfway point. The term melting point denotes the temperature of the solid-liquid transition. Regarding `O=c1c(O)c(-c2ccc(O)c(O)c2)oc2cc(OCc3ccc(Cl)cc3)cc(O)c12` [Compound 3o, 7-((4-Chlorobenzyl)oxy)-2-(3,4-dihydroxyphenyl)-3,5-dihydroxy-4H-chromen-4-one], the melting point lay within 266 to 267 °C. In data set [1], the EC50 was determined as 3.9 ± 0.3 µM and the “SI (selectivity index)” value came out at 3.9. Moreover, the CC50 in data set [2] came out at 15.1 ± 0.1 µM.

As for `CC(C)Oc1c(-c2ccc(O)c(O)c2)oc2cc(O)cc(O)c2c1=O` [Compound 12b, 2-(3,4-Dihydroxyphenyl)-5,7-dihydroxy-3-isopropoxy-4H-chromen-4-one], the melting point was 259 to 262 °C. In data set [1], the EC50 was found to be 38.9 ± 2.5 µM and the “SI (selectivity index)” value is given as 0.7. In data set [2], this compound came in with a CC50 of 28.8 ± 2 µM.

`Cc1ccccc1COc1cc(O)c2c(=O)c(O)c(-c3ccc(O)c(O)c3)oc2c1` [Compound 3e, 2-(3,4-Dihydroxyphenyl)-3,5-dihydroxy-7-((2-methylbenzyl)oxy)-4H-chromen-4-one] came in with a melting point of 241 to 242 °C. Further, in data set [1], a half-maximal effect (EC50) was put at 4.9 ± 0.6 µM and the “SI (selectivity index)” value was 4.4. Half-maximal cytotoxicity in data set [2] (CC50) was put at 21.7 ± 1.4 µM.

`O=c1c(O)c(-c2ccc(O)c(O)c2)oc2cc(OCc3ccccc3F)cc(O)c12` [Compound 3b, 2-(3,4-Dihydroxyphenyl)-7-((2-fluorobenzyl)oxy)-3,5-dihydroxy-4H-chromen-4-one]: the melting point lay within 254 to 255 °C. Moreover, in data set [1], the EC50 was found to be 5 ± 0.1 µM and the “SI (selectivity index)” value came out at 3.1. The CC50 in data set [2] was 15.4 ± 0.1 µM.

Regarding `N#Cc1cccc(COc2cc(O)c3c(=O)c(O)c(-c4ccc(O)c(O)c4)oc3c2)c1` [Compound 3l, 3-(((2-(3,4-Dihydroxyphenyl)-3,5-dihydroxy-4-oxo-4H-chromen-7-yl)oxy)methyl)benzonitrile], in data set [1], the EC50 was 5.4 ± 0.5 µM and the “SI (selectivity index)” value is recorded as 2.0. Further, in data set [2] (setting [3]), the CC50 is 10.6 ± 0.5 µM.

Consider `O=c1c(O)c(-c2ccc(O)c(O)c2)oc2cc(OCc3cccc(Br)c3)cc(O)c12` [Compound 3j, 7-((3-Bromobenzyl)oxy)-2-(3,4-dihydroxyphenyl)-3,5-dihydroxy-4H-chromen-4-one], for which the melting point was in the range of 234 to 236 °C. In data set [1], the EC50 turned out to be 4.1 ± 0.3 µM and the “SI (selectivity index)” value stood at 5.4. The same compound showed a CC50 in data set [2] of 22.3 ± 1.2 µM.

`O=C(Oc1c(-c2ccc(O)c(O)c2)oc2cc(O)cc(O)c2c1=O)c1cccc(F)c1` [Compound 4f, 2-(3,4-Dihydroxyphenyl)-5,7-dihydroxy-4-oxo-4H-chromen-3-yl 3-fluorobenzoate] came in with a melting point of 211 to 213 °C. For the same compound, in data set [1], a half-maximal effect (EC50) was put at 9 ± 4.5 µM and the “SI (selectivity index)” value is reported as over 5.6. Also, the CC50 in data set [2] is over 50 µM.

Take `O=C(Oc1c(-c2ccc(O)c(O)c2)oc2cc(O)cc(O)c2c1=O)c1ccccc1F` [Compound 4b, 2-(3,4-Dihydroxyphenyl)-5,7-dihydroxy-4-oxo-4H-chromen-3-yl 2-fluorobenzoate]: the melting point fell in the range of 186 to 187 °C. In data set [1], the response was half-maximal at 12.9 ± 3.2 µM (EC50) and the “SI (selectivity index)” value was over 3.9. In data set [2], this compound showed a CC50 of over 50 µM.

Take `COc1cccc(C(=O)Oc2c(-c3ccc(O)c(O)c3)oc3cc(O)cc(O)c3c2=O)c1` [Compound 4h, 2-(3,4-Dihydroxyphenyl)-5,7-dihydroxy-4-oxo-4H-chromen-3-yl 3-methoxybenzoate]: the melting point fell in the range of 173 to 174 °C. Further, in data set [1], the EC50 is 15.6 ± 0.3 µM and the “SI (selectivity index)” value is reported as over 3.2. For the same compound, the CC50 in data set [2] is over 50 µM.

The compound `Nc1ccccc1C(=O)Oc1c(-c2ccc(O)c(O)c2)oc2cc(O)cc(O)c2c1=O` [Compound 4c, 2-(3,4-Dihydroxyphenyl)-5,7-dihydroxy-4-oxo-4H-chromen-3-yl 2-aminobenzoate] registered a melting point of 198 to 199 °C. In data set [1], it took 12.8 ± 2.8 µM to reach a half-maximal effect (EC50) and the “SI (selectivity index)” value is listed as over 3.9. Further, the CC50 in data set [2] (setting [3]) is over 50 µM.

For the compound `N#Cc1ccccc1COc1cc(O)c2c(=O)c(O)c(-c3ccc(O)c(O)c3)oc2c1` [Compound 3f, 2-(((2-(3,4-Dihydroxyphenyl)-3,5-dihydroxy-4-oxo-4H-chromen-7-yl)oxy)methyl)benzonitrile], the melting point was in the range of 248 to 249 °C. Further, in data set [1], the EC50 amounted to 7.5 ± 0.5 µM and the “SI (selectivity index)” value is 1.7. In data set [2], this compound showed a CC50 of 12.6 ± 0.1 µM.

In the case of `O=c1c(OCCO)c(-c2ccc(O)c(O)c2)oc2cc(O)cc(O)c12` [Compound 12c, 2-(3,4-Dihydroxyphenyl)-5,7-dihydroxy-3-(2-hydroxyethoxy)-4H-chromen-4-one], in data set [1], the EC50 is 26.3 ± 3.1 µM and the “SI (selectivity index)” value is given as over 1.9. The CC50 in data set [2] is over 50 µM.

`COc1ccc(C(=O)Oc2c(-c3ccc(O)c(O)c3)oc3cc(O)cc(O)c3c2=O)cc1` [Compound 4m, 2-(3,4-Dihydroxyphenyl)-5,7-dihydroxy-4-oxo-4H-chromen-3-yl 4-methoxybenzoate] displayed a melting point of 194 to 195 °C. Also, in data set [1], the EC50 amounted to 13.6 ± 2.1 µM and the “SI (selectivity index)” value came out at 2.5. This compound also came in with a CC50 in data set [2] of 33.9 ± 3.7 µM.

For the compound `Cc1ccc(COc2cc(O)c3c(=O)c(O)c(-c4ccc(O)c(O)c4)oc3c2)cc1` [Compound 3q, 2-(3,4-Dihydroxyphenyl)-3,5-dihydroxy-7-((4-methylbenzyl)oxy)-4H-chromen-4-one], the melting point is 261 to 264 °C. Moreover, in data set [1], a half-maximal effect (EC50) was put at 6.7 ± 1.4 µM and the “SI (selectivity index)” value is 2.4. In data set [2], this compound registered a CC50 of 15.9 ± 1 µM.

As to `O=c1c(O)c(-c2ccc(O)c(O)c2)oc2cc(OCc3ccccc3[N+](=O)[O-])cc(O)c12` [Compound 3g, 2-(3,4-Dihydroxyphenyl)-3,5-dihydroxy-7-((2-nitrobenzyl)oxy)-4H-chromen-4-one], the melting point is 260 to 261 °C. Besides, in data set [1], the EC50 stood at 7 ± 1.1 µM and the “SI (selectivity index)” value turned out to be 2.1. The compound also gave a CC50 in data set [2] of 14.6 ± 0.5 µM.

Take `Nc1cccc(C(=O)Oc2c(-c3ccc(O)c(O)c3)oc3cc(O)cc(O)c3c2=O)c1` [Compound 4g, 2-(3,4-Dihydroxyphenyl)-5,7-dihydroxy-4-oxo-4H-chromen-3-yl 3-aminobenzoate]: the melting point was 216 to 217 °C. Also, in data set [1], it took 21.1 ± 1.3 µM to reach a half-maximal effect (EC50) and the “SI (selectivity index)” value is reported as over 2.4. In data set [2], this compound yielded a CC50 of over 50 µM.

In turn, `O=c1c(O)c(-c2ccc(O)c(O)c2)oc2cc(OCc3ccccc3Cl)cc(O)c12` [Compound 3c, 7-((2-Chlorobenzyl)oxy)-2-(3,4-dihydroxyphenyl)-3,5-dihydroxy-4H-chromen-4-one] registered a melting point of 253 to 254 °C. For the same compound, in data set [1], the EC50 is 4.8 ± 0.1 µM and the “SI (selectivity index)” value was found to be 7.7. The midpoint of cytotoxicity in data set [2], the CC50, lay at 36.7 ± 0.7 µM.

`N#Cc1cccc(C(=O)Oc2c(-c3ccc(O)c(O)c3)oc3cc(O)cc(O)c3c2=O)c1` [Compound 4i, 2-(3,4-Dihydroxyphenyl)-5,7-dihydroxy-4-oxo-4H-chromen-3-yl 3-cyanobenzoate] gave a melting point of 142 to 143 °C. In data set [1], the EC50 stood at 13.1 ± 1 µM and the “SI (selectivity index)” value is listed as over 3.8. Further, in data set [2], the cytotoxic concentration (CC50) was over 50 µM.

Turning to `COc1ccccc1C(=O)Oc1c(-c2ccc(O)c(O)c2)oc2cc(O)cc(O)c2c1=O` [Compound 4d, 2-(3,4-Dihydroxyphenyl)-5,7-dihydroxy-4-oxo-4H-chromen-3-yl 2-methoxybenzoate], the melting point was in the range of 183 to 184 °C. For the same compound, in data set [1], the EC50 was 11.7 ± 1.3 µM and the “SI (selectivity index)” value was over 4.3. For the same compound, the CC50 in data set [2] was over 50 µM.

With `COc1c(-c2ccc(O)c(O)c2)oc2cc(O)cc(O)c2c1=O` [Compound 12a, 2-(3,4-Dihydroxyphenyl)-5,7-dihydroxy-3-methoxy-4H-chromen-4-one], in data set [1], the EC50 amounted to 11.2 ± 0.1 µM and the “SI (selectivity index)” value is over 4.5. The same compound displayed a CC50 in data set [2] of over 50 µM.
